This is an account of results in US20210214375A1 (LUNDBECK LA JOLLA RESEARCH CENTER, INC., priority 2017, published 2021).

Usually IC50 stands for the concentration that inhibits the measured activity by half. Read a high IC50 as a need for much substance.

In one assay the target is T1, MAGL (Mus musculus, UniProt O35678).
T1 construct: from tissue; host or cells: brain of wild-type C57Bl/6J mice
T1 sequence (O35678 1-303): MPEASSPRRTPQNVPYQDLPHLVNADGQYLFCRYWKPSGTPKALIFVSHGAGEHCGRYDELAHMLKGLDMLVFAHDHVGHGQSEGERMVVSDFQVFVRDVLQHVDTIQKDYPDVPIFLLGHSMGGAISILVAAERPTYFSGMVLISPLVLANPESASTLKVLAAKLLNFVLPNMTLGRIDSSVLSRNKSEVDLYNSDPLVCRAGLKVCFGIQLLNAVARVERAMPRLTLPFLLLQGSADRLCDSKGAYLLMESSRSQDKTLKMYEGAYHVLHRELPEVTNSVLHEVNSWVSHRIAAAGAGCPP
Put plainly: Mouse brain proteomes from inhibitor treated mice (oral gavage, brain proteomes analyzed 4 h after administration). To be noted: brain proteome 4 h after administration, read-out: % Inh 5 mg/kg MGLL (Mouse). In kind it is in vivo, mouse (C57Bl/6J). The method, boiled down:
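Wild-type C57Bl/6J mice dosed orally in polyethylene glycol vehicle; brains removed 4 h post-dose and brain proteomes prepared and analysed for MAGL and serine hydrolase activity by previously established methods.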

A further assay addresses T2, MGLL (Mus musculus, UniProt O35678).
T2 construct: Brain; from tissue; host or cells: mouse brain proteome
T2 sequence (O35678 1-303): T1 sequence (O35678 1-303)
Nature of the assay: In vitro competitive activity-based protein profiling, mouse brain proteome. In kind it is biochemical. The method, then:
[Worded in the source for another species; this species is reported under the same test.] (§1) Proteomes (human prefrontal cortex or cell membrane fractions) (50 μL, 1.0 mg/mL total protein concentration) were preincubated with varying concentrations of inhibitors at 37° C. After 30 min, FP—Rh or HT-01 (1.0 μL, 50 μM in DMSO) was added and the mixture was incubated for another 30 min at room temperature. Reactions were quenched with SDS loading buffer (15 μL-4×) and run on SDS-PAGE.

A further assay addresses T3, ABHD6 (Mus musculus, UniProt Q8R2Y0).
T3 construct: Brain; from tissue; host or cells: mouse brain proteome
T3 sequence (Q8R2Y0 1-336): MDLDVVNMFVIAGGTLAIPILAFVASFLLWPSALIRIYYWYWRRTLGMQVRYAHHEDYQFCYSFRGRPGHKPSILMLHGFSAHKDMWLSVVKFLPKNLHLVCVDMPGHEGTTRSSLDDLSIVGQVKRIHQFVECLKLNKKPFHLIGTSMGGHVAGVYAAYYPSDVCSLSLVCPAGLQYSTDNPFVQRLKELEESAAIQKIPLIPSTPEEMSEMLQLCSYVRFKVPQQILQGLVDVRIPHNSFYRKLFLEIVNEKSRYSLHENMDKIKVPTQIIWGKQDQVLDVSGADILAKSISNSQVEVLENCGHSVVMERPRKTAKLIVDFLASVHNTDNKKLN
Put plainly: In vitro competitive activity-based protein profiling, mouse brain proteome, ABHD6. In kind it is biochemical. As to conditions: mouse. The method, then:
[Worded in the source for another target; this target is reported under the same test.] as §1

SMILES strings stand for the structures. Some results are limits rather than exact numbers.

As to `CS(=O)(=O)N1CCN(c2cccc(C(F)(F)F)c2CN2CC3(CCN(C(=O)OC(C(F)(F)F)C(F)(F)F)CC3)C2)CC1` [Example 53, 1,1,1,3,3,3-Hexafluoropropan-2-yl 2-(2-(4-(methylsulfonyl)piperazin-1-yl)-6-(trifluoromethyl)benzyl)-2,7-diazaspiro[3.5]nonane-7-carboxylate], the inhibition at 5 mg/kg on MAGL is at least 75%. In addition, the IC50 was under 100 nM on MGLL and 100 to 1000 nM on ABHD6.
`CCN1CCN(c2cccc(C(F)(F)F)c2CN2CC3(CCN(C(=O)OC(C(F)(F)F)C(F)(F)F)CC3)C2)CC1` [Example 54, 1,1,1,3,3,3-Hexafluoropropan-2-yl 2-(2-(4-ethylpiperazin-1-yl)-6-(trifluoromethyl)benzyl)-2,7-diazaspiro[3.5]nonane-7-carboxylate]: on MAGL, the inhibition at 5 mg/kg is at most 25%. The IC50 on MGLL was under 100 nM; at ABHD6 it was over 1000 nM.
On the same counts, the results for `O=C(OC(C(F)(F)F)C(F)(F)F)N1CCC2(CC1)CN(Cc1c(Cl)cccc1N1CC3COCC3C1)C2` (stereo not drawn) [Example 57, 1,1,1,3,3,3-Hexafluoropropan-2-yl 2-(2-chloro-6-(tetrahydro-1H-furo[3,4-c]pyrrol-5(3H)-yl)benzyl)-2,7-diazaspiro[3.5]nonane-7-carboxylate] are at least 75%, under 100 nM and 100 to 1000 nM.
On the same counts, the results for `O=C(OC(C(F)(F)F)C(F)(F)F)N1CCC2(CC1)CN(Cc1c(Cl)cccc1N1CCN(C3CC3)CC1)C2` [Example 58, 1,1,1,3,3,3-Hexafluoropropan-2-yl 2-(2-chloro-6-(4-cyclopropylpiperazin-1-yl)benzyl)-2,7-diazaspiro[3.5]nonane-7-carboxylate] are at least 75%, under 100 nM and 100 to 1000 nM.
On the same counts, the results for `CC(=O)N1CCN(c2cccc(C(F)(F)F)c2CN2CC3(CCN(C(=O)OC(C(F)(F)F)C(F)(F)F)CC3)C2)CC1` [Example 59, 1,1,1,3,3,3-Hexafluoropropan-2-yl 2-(2-(4-acetylpiperazin-1-yl)-6-(trifluoromethyl)benzyl)-2,7-diazaspiro[3.5]nonane-7-carboxylate] are at least 75%, under 100 nM and 100 to 1000 nM.
`O=C(OC(C(F)(F)F)C(F)(F)F)N1CCC2(CC1)CN(Cc1c(N3CCN(C4CC4)CC3)cccc1C(F)(F)F)C2` [Example 60, 1,1,1,3,3,3-Hexafluoropropan-2-yl 2-(2-(4-cyclopropylpiperazin-1-yl)-6-(trifluoromethyl)benzyl)-2,7-diazaspiro[3.5]nonane-7-carboxylate]: on MAGL, the inhibition at 5 mg/kg was at least 75%. In addition, the IC50 at MGLL was under 100 nM; at ABHD6, over 1000 nM.
For the molecule `CS(=O)(=O)N1CCC2(CCN(c3cccc(Cl)c3CN3CC4(CCN(C(=O)OC(C(F)(F)F)C(F)(F)F)CC4)C3)CC2)C1` [Example 61, 1,1,1,3,3,3-Hexafluoropropan-2-yl 2-(2-chloro-6-(2-(methylsulfonyl)-2,8-diazaspiro[4.5]decan-8-yl)benzyl)-2,7-diazaspiro[3.5]nonane-7-carboxylate], the inhibition at 5 mg/kg on MAGL was 25 to 75%. The IC50 on MGLL is under 100 nM; on ABHD6, 100 to 1000 nM.
On the same counts, the results for `CS(=O)(=O)N1CCC2(CCN(c3cccc(C(F)(F)F)c3CN3CC4(CCN(C(=O)OC(C(F)(F)F)C(F)(F)F)CC4)C3)CC2)C1` [Example 62, 1,1,1,3,3,3-Hexafluoropropan-2-yl 2-(2-(2-(methylsulfonyl)-2,8-diazaspiro[4.5]decan-8-yl)-6-(trifluoromethyl)benzyl)-2,7-diazaspiro[3.5]nonane-7-carboxylate] are 25 to 75%, under 100 nM and over 1000 nM.
On the same counts, the results for `CN(Cc1ccc(C(F)(F)F)cc1N1CCOCC1)C1(C)CCN(C(=O)OC(C(F)(F)F)C(F)(F)F)CC1` [Example 63, 1,1,1,3,3,3-Hexafluoropropan-2-yl 4-methyl-4-(methyl(2-morpholino-4-(trifluoromethyl)benzyl)amino) piperidine-1-carboxylate] are at least 75%, under 100 nM and over 1000 nM.
On the same counts, the results for `O=C(OC(C(F)(F)F)C(F)(F)F)N1CCC2(CC1)CN(Cc1ccc(C(F)(F)F)cc1)C2` [Example 69, 1,1,1,3,3,3-Hexafluoropropan-2-yl 2-(4-(trifluoromethyl)benzyl)-2,7-diazaspiro[3.5]nonane-7-carboxylate] are at least 75%, under 100 nM and under 100 nM.
For `CN(Cc1ccc(C(F)(F)F)cc1N1CCCC1)C1(C)CCN(C(=O)OC(C(F)(F)F)C(F)(F)F)CC1` [Example 72, 1,1,1,3,3,3-Hexafluoropropan-2-yl 4-methyl-4-(methyl(2-(pyrrolidin-1-yl)-4-(trifluoromethyl)benzyl)amino) piperidine-1-carboxylate], the inhibition at 5 mg/kg at MAGL was at least 75%. The IC50 at MGLL is under 100 nM; at ABHD6, over 1000 nM.
On to `O=C(OC(C(F)(F)F)C(F)(F)F)N1CCC2(CC1)CN(Cc1ccc(C(F)(F)F)cc1N1CCCC1)C2` [Example 151, 1,1,1,3,3,3-Hexafluoropropan-2-yl 2-(2-(pyrrolidin-1-yl)-4-(trifluoromethyl)benzyl)-2,7-diazaspiro[3.5]nonane-7-carboxylate], for which, on MAGL, the inhibition at 5 mg/kg is at least 75%. Also, the IC50 is under 100 nM on MGLL and 100 to 1000 nM at ABHD6.
On the same counts, the results for `CS(=O)(=O)N1CCC2(CCN(c3ccccc3CN3CCN(C(=O)OC(C(F)(F)F)C(F)(F)F)CC3)C2)C1` (stereo not drawn) [Example 165, 1,1,1,3,3,3-Hexafluoropropan-2-yl 4-(2-(7-(methylsulfonyl)-2,7-diazaspiro[4.4]nonan-2-yl)benzyl)piperazine-1-carboxylate] are at least 75%, under 100 nM and over 1000 nM.
On the same counts, the results for `CC(=O)N1CCC2(CCN(c3ccccc3CN3CCN(C(=O)OC(C(F)(F)F)C(F)(F)F)CC3)C2)C1` (stereo not drawn) [Example 166, 1,1,1,3,3,3-Hexafluoropropan-2-yl 4-(2-(7-acetyl-2,7-diazaspiro[4.4]nonan-2-yl)benzyl)piperazine-1-carboxylate] are at most 25%, under 100 nM and over 1000 nM.
On the same counts, the results for `CS(=O)(=O)N1CC2(CCN(c3ccccc3CN3CCN(C(=O)OC(C(F)(F)F)C(F)(F)F)CC3)C2)C1` [Example 167, 1,1,1,3,3,3-Hexafluoropropan-2-yl 4-(2-(2-(methylsulfonyl)-2,6-diazaspiro[3.4]octan-6-yl)benzyl)piperazine-1-carboxylate] are at least 75%, under 100 nM and over 1000 nM.
As for `O=C(OC(C(F)(F)F)C(F)(F)F)N1CCC2(CCN(Cc3cccc(Cl)c3N3CCCC3)CC2)C1` [Example 171, 1,1,1,3,3,3-Hexafluoropropan-2-yl 8-(3-chloro-2-(pyrrolidin-1-yl)benzyl)-2,8-diazaspiro[4.5]decane-2-carboxylate], the inhibition at 5 mg/kg on MAGL was at least 75%. In addition, the IC50 was under 100 nM at MGLL and over 1000 nM on ABHD6.
Regarding `CS(=O)(=O)N1CC2(CCN(c3cc(Cl)ccc3CN3CCN(C(=O)OC(C(F)(F)F)C(F)(F)F)CC3)C2)C1` [Example 175, 1,1,1,3,3,3-Hexafluoropropan-2-yl 4-(4-chloro-2-(2-(methylsulfonyl)-2,6-diazaspiro[3.4]octan-6-yl)benzyl)piperazine-1-carboxylate], the inhibition at 5 mg/kg at MAGL was at least 75%. Besides, the IC50 at MGLL was under 100 nM; on ABHD6, over 1000 nM.
On the same counts, the results for `CC(=O)N1CC2(CCN(c3cc(Cl)ccc3CN3CCN(C(=O)OC(C(F)(F)F)C(F)(F)F)CC3)C2)C1` [Example 176, 1,1,1,3,3,3-Hexafluoropropan-2-yl 4-(2-(2-acetyl-2,6-diazaspiro[3.4]octan-6-yl)-4-chlorobenzyl) piperazine-1-carboxylate] are at least 75%, under 100 nM and over 1000 nM.
Take `CN1CCC2(CCN(c3cc(Cl)ccc3CN3CCN(C(=O)OC(C(F)(F)F)C(F)(F)F)CC3)CC2)C1` [Example 177, 1,1,1,3,3,3-Hexafluoropropan-2-yl 4-(4-chloro-2-(2-methyl-2,8-diazaspiro[4.5]decan-8-yl)benzyl)piperazine-1-carboxylate]: the inhibition at 5 mg/kg at MAGL fell in the range of 25 to 75%. Further, the IC50 at MGLL is under 100 nM; at ABHD6, over 1000 nM.
